Experiments:
pigweed = test: Test B pre/postemergence pigweed; type: in vivo, Amaranthus retroflexus
Outline: (§1)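 Herbicidal effect was estimated by eye on a ten-point control scale after plants spent twelve to sixteen days in a greenhouse following soil or foliar treatment. Foliar sprays targeted plants at one to four leaves; all doses were formulated in a non-phytotoxic solvent with surfactant.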

giant foxtail = test: Test B pre/postemergence giant foxtail; type: in vivo, Setaria faberii
Outline: as §1

smallflower flatsedge = test: Test B flood test smallflower flatsedge; type: in vivo, Cyperus difformis
Outline: (§2)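 Each value is a visual injury score relative to controls, with 10 meaning complete control and 0 no effect. Evaluation took place twelve to sixteen days after the 2-leaf-stage plants were treated and kept in the greenhouse.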

crabgrass = test: Test B pre/postemergence crabgrass; type: in vivo, Digitaria sanguinalis
Outline: as §1

velvetleaf = test: Test B pre/postemergence velvetleaf; type: in vivo, Abutilon theophrasti
Outline: as §1

soybean = test: Test B pre/postemergence soybean; type: in vivo, Glycine max
Outline: as §1

bamyardgrass = test: Test B flood test barnyardgrass; type: in vivo, Echinochloa crus-galli
Outline: as §2

wild oat = test: Test B pre/postemergence wild oat; type: in vivo, Avena fatua
Outline: as §1

purple nutsedge = test: Test B pre/postemergence purple nutsedge; type: in vivo, Cyperus rotundus
Outline: as §1

blackgrass = test: Test B pre/postemergence blackgrass; type: in vivo, Alopecurus myosuroides
Outline: as §1

corn = test: Test B pre/postemergence corn; type: in vivo, Zea mays
Outline: as §1

sugar beet = test: Test B pre/postemergence sugar beet; type: in vivo, Beta vulgaris
Outline: as §1

rape = test: Test B pre/postemergence rape; type: in vivo, Brassica napus
Outline: as §1

morningglory = test: Test B pre/postemergence morningglory; type: in vivo, Ipomoea hederacea
Outline: as §1

cocklebur = test: Test B pre/postemergence cocklebur; type: in vivo, Xanthium strumarium
Outline: as §1

surinam grass = test: Test B pre/postemergence surinam grass; type: in vivo, Brachiaria decumbens
Outline: as §1

[1] = Postemergence, Rate 125 g/ha, scale of 0 to 10 where 0 is no effect and 10 is complete control
[2] = Postemergence, Rate 250 g/ha, scale of 0 to 10, 0 is no effect, 10 is complete control
[3] = Postemergence, Rate 500 g/ha, scale of 0 to 10 where 0 is no effect and 10 is complete control
[4] = Preemergence, Rate 62 g/ha, scale 0 to 10 (0 no effect, 10 complete control)
[5] = Preemergence, Rate 125 g/ha, scale of 0 to 10 where 0 is no effect and 10 is complete control
[6] = Preemergence, Rate 500 g/ha, scale of 0 to 10 where 0 is no effect and 10 is complete control
[7] = Postemergence, Rate 62 g/ha, scale of 0 to 10, 0 is no effect, 10 is complete control
[8] = Rate 62 g/ha, flood test species, Pre-emergence, visual evaluation after twelve to sixteen days
[9] = Rate 125 g/ha, under heading Pre-emergence, flood test species, visual evaluation after twelve to sixteen days
[10] = Rate 250 g/ha, Pre-emergence (flood test species), scale 0 to 10, 0 is no effect, 10 is complete control
[11] = Rate 500 g/ha, Pre-emergence section of Table B, 0 to 10 scale (0 no effect, 10 complete control)

CC(C)N(C(=O)n1oc(=O)n(CC(=O)C(F)(F)F)c1=O)c1ccc(F)cc1F [Compound 598]
0: Plant response rating, Redroot pigweed (pigweed; [1]) | Redroot pigweed plant response rating (pigweed; [2]) | Plant response rating, Redroot pigweed (pigweed; [3]) | Redroot pigweed plant response rating (pigweed; [4]) | Redroot pigweed plant response rating (pigweed; [5]) | Plant response rating, Redroot pigweed (pigweed; [6]) | Giant foxtail plant response rating (giant foxtail; [7]) | Plant response rating, Giant foxtail (giant foxtail; [1]) | Giant foxtail plant response rating (giant foxtail; [2]) | Plant response rating, Giant foxtail (giant foxtail; [3]) | Giant foxtail plant response rating (giant foxtail; [4]) | Giant foxtail plant response rating (giant foxtail; [5]) | Plant response rating, Giant foxtail (giant foxtail; [6]) | Plant response rating, S. Flatsedge (0 to 10 scale, 0 is no effect, 10 is complete control) (smallflower flatsedge; [8]) | S. Flatsedge plant response rating (0 to 10 scale, 0 is no effect, 10 is complete control) (smallflower flatsedge; [9]) | S. Flatsedge plant response rating (smallflower flatsedge; [10]) | S. Flatsedge plant response rating (smallflower flatsedge; [11]) | Crabgrass plant response rating (crabgrass; [7]) | Plant response rating, Crabgrass (crabgrass; [1]) | Crabgrass plant response rating (crabgrass; [2]) | Plant response rating, Crabgrass (crabgrass; [3]) | Crabgrass plant response rating (crabgrass; [4]) | Crabgrass plant response rating (crabgrass; [5]) | Plant response rating, Crabgrass (crabgrass; [6]) | Plant response rating, Velvetleaf (velvetleaf; [1]) | Velvetleaf plant response rating (velvetleaf; [2]) | Plant response rating, Velvetleaf (velvetleaf; [3]) | Velvetleaf plant response rating (velvetleaf; [4]) | Velvetleaf plant response rating (velvetleaf; [5]) | Plant response rating, Velvetleaf (velvetleaf; [6]) | Plant response rating, Soybean (soybean; [1]) | Soybean plant response rating (soybean; [2]) | Plant response rating, Soybean (soybean; [3]) | Soybean plant response rating (soybean; [4]) | Soybean plant response rating (soybean; [5]) | Plant response rating, Soybean (soybean; [6]) | Plant response rating, Barnyardgrass (0 to 10 scale, 0 is no effect, 10 is complete control) (bamyardgrass; [8]) | Barnyardgrass plant response rating (0 to 10 scale, 0 is no effect, 10 is complete control) (bamyardgrass; [9]) | Barnyardgrass plant response rating (bamyardgrass; [10]) | Barnyardgrass plant response rating (bamyardgrass; [11]) | Plant response rating, Wild oats (wild oat; [1]) | Wild oats plant response rating (wild oat; [2]) | Plant response rating, Wild oats (wild oat; [3]) | Wild oats plant response rating (wild oat; [4]) | Wild oats plant response rating (wild oat; [5]) | Plant response rating, Wild oats (wild oat; [6]) | Nutsedge plant response rating (purple nutsedge; [7]) | Plant response rating, Nutsedge (purple nutsedge; [1]) | Nutsedge plant response rating (purple nutsedge; [2]) | Plant response rating, Nutsedge (purple nutsedge; [3]) | Nutsedge plant response rating (purple nutsedge; [4]) | Nutsedge plant response rating (purple nutsedge; [5]) | Plant response rating, Nutsedge (purple nutsedge; [6]) | Blackgrass plant response rating (blackgrass; [7]) | Plant response rating, Blackgrass (blackgrass; [1]) | Blackgrass plant response rating (blackgrass; [2]) | Plant response rating, Blackgrass (blackgrass; [3]) | Blackgrass plant response rating (blackgrass; [4]) | Blackgrass plant response rating (blackgrass; [5]) | Blackgrass plant response rating (0 to 10 scale) (blackgrass; Preemergence, Rate 250 g/ha) | Blackgrass plant response rating (blackgrass; [6]) | Corn plant response rating (corn; [7]) | Plant response rating, Corn (corn; [1]) | Corn plant response rating (corn; [2]) | Plant response rating, Corn (corn; [3]) | Corn plant response rating (corn; [4]) | Corn plant response rating (corn; [5]) | Corn plant response rating (0 to 10 scale) (corn; Preemergence, Rate 250 g/ha) | Plant response rating, Corn (corn; [6]) | Plant response rating, Sugarbeets (sugar beet; [1]) | Sugarbeets plant response rating (sugar beet; [2]) | Plant response rating, Sugarbeets (sugar beet; [3]) | Sugarbeets plant response rating (sugar beet; [4]) | Sugarbeets plant response rating (sugar beet; [5]) | Plant response rating, Sugarbeets (sugar beet; [6]) | Rape plant response rating (rape; [7]) | Plant response rating, Rape (rape; [1]) | Rape plant response rating (rape; [2]) | Plant response rating, Rape (rape; [3]) | Rape plant response rating (rape; [4]) | Rape plant response rating (rape; [5]) | Plant response rating, Rape (rape; [6]) | Morningglory plant response rating (morningglory; [7]) | Plant response rating, Morningglory (morningglory; [1]) | Morningglory plant response rating (morningglory; [2]) | Plant response rating, Morningglory (morningglory; [3]) | Morningglory plant response rating (morningglory; [4]) | Morningglory plant response rating (morningglory; [5]) | Plant response rating, Morningglory (morningglory; [6]) | Cocklebur plant response rating (cocklebur; [7]) | Plant response rating, Cocklebur (cocklebur; [1]) | Cocklebur plant response rating (cocklebur; [2]) | Plant response rating, Cocklebur (cocklebur; [3]) | Cocklebur plant response rating (cocklebur; [4]) | Cocklebur plant response rating (cocklebur; [5]) | Cocklebur plant response rating (0 to 10 scale) (cocklebur; Preemergence, Rate 250 g/ha) | Plant response rating, Cocklebur (cocklebur; [6]) | B. signalgrass plant response rating (surinam grass; [7]) | Plant response rating, B. signalgrass (surinam grass; [1]) | B. signalgrass plant response rating (surinam grass; [2]) | Plant response rating, B. signalgrass (surinam grass; [3]) | B. signalgrass plant response rating (surinam grass; [4]) | B. signalgrass plant response rating (surinam grass; [5]) | B. signalgrass plant response rating (0 to 10 scale, 0 is no effect, 10 is complete control) (surinam grass; Preemergence, Rate 250 g/ha) | B. signalgrass plant response rating (surinam grass; [6])

Source: US6737383B1, “Herbicidal oxadiazolidines” (priority 1999, dated 2004)
